The test system of series [1] is human PDAC xenograft models. Put plainly: Human PDAC xenograft (CDX/PDX) tumor growth studies. The settings on record: 10 mg/kg daily. It is filed as in vivo, mouse. Here is the method: Studies were conducted at the following CROs: GenenDesign (Shanghai, China), Pharmaron (Beijing, China), and Wuxi AppTec (SuZhou, China). All CDX/PDX mouse studies and procedures related to animal handling, care and treatment were conducted in compliance with all applicable regulations and guidelines of the relevant Institutional Animal Care and Use Committee (IACUC). Female BALB/c nude mice and NOD SCID mice 6-8 weeks old from Beijing Vital River/VR Laboratory Animal Co., LTD, Beijing AniKeeper Biotech Co., Ltd., and Shanghai Sino-British SIPPR/BK Laboratory Animal Co., LTD were used for these studies.
In order to generate subcutaneous xenograft tumors each mouse was inoculated at the right flank with tumor cells (2×10^6-1×10^7) in 100-200 μl of media/PBS supplemented with Matrigel (1:1). Treatments were started when the average tumor volume reached 150-250 mm^3 (for tumor growth evaluation) and 400-600 mm^3 (for single dose pharmacokinetic/pharmacodynamic (PK/PD) study). Tumor diameter was measured in two dimensions using a digital caliper, and the tumor volume in mm^3 was calculated using the formula: Volume=((width)2×length)/2. Mice on studies were weighed and tumors were measured 2 times a week.
The human primary cancer xenograft models were generated using fresh tumor fragments obtained from hospitals with informed consent from the patients in accordance with protocols approved by the Hospital Institutional Ethical Committee (IEC). The tumor fragments were serial passaged in BABL/c nude mice and then cryopreserved for further use. For this study, recovered tumor fragments of about 15-30 mm^3 in size from each model were implanted into right flanks of BALB/c nude mice. Treatment started when average tumor volume reached 150-250 mm^3.
To generate orthotopic xenograft tumors, survival surgeries were carried out and 2×10^6 5×10^6 luciferase-expressing tumor cells in 30-50 μL Media/Matrigel mixtures (1:1) were implanted directly into the mouse pancreas. Treatments were started when the tumors produced an average of 50-80×10^7 photon/second as measured by the in vivo imaging system (IVIS). All subsequent tumor measures were also conducted by IVIS. For routine monitoring, mice were injected intraperitoneally with 15 mg/mL (at 5 μL/g BW) of D-Luciferin (Perkin Elmer) and imaged, after which Living Image software (Perkin Elmer) was used to compute regions of interest (ROI) and tumor volumes.
Tumor-bearing animals were randomized and assigned into groups (n=3-10/group). Vehicle or RMC-7977 was administered via oral gavage daily at 10 mg/kg and animals were treated for 21-28 days. Studies were terminated early if tumor burden reached humane endpoint. Body weights were collected twice a week during the study. Means±s.e.m were plotted in the waterfall plots. For the single-dose pharmacokinetic/pharmacodynamic (PK/PD) study, mice were randomized and assigned into groups (n=3-6/dose/timepoint). A single dose of RMC-7977 was administered orally at 10 mg/kg, 25 mg/kg and 50 mg/kg. Tissues (including tumor, colon and skin) were harvested at indicated time points and either fixed in 10% formalin, embedded in Optimal Cutting Temperature (OCT; Sakura, 4583) solution or snap-frozen in LN2 for further analysis. Whole blood was transferred into K2EDTA Microtainer tubes (BD, 365974), incubated for 5 minutes and snap-frozen in LN2.
(A xenograft is tissue or cells of one species grown in another, often human tumour cells in immunodeficient mice.)

Series [2] deals with CC3+ apoptotic cells, Cyclin A2. As to the kind of experiment: CC3 and Cyclin A2 IHC in KPF/FC mice (tumor, colon). Format: in vivo, mouse. Here is the method: Tumor formation in KPF/FC (KrasLSL.G12D/+; p53flox/flox; Pdx1-Cre) mice was monitored by bi-weekly palpations until the detection of a mass, which was then confirmed by ultrasound. Tumor-bearing mice were randomized and assigned into groups (n=3/dose/timepoint). Single dose of RMC-7977 was administered orally at 10 mg/kg, 25 mg/kg and 50 mg/kg. The same vehicle formulation was used for the control group. Whole blood and tissue (tumors and colons) were harvested at indicated time points preserved as previously described (See Xenograft studies section).
All tissues were fixed for up to 24 hours using 10% neutral buffered formalin and then moved to 70% ethanol for long term storage. All stainings were performed on 4-μm tissue sections. Sections were deparaffinized using a Leica XL ST5010 autostainer, after which slides were subjected to heat-activated epitope retrieval. To block endogenous peroxidases, 20 min incubation in 3% H2O2 (Fisher Scientific) was performed. Slides were further blocked in serum for 1 hour, and primary antibodies were added for overnight incubation at 4° C. The next day, slides were washed and incubated with ImmPRESS HRP Horse Anti-Rabbit IgG Polymer Detection Kit (Vector Laboratories, MP-7401) for 30 min. Following incubation, ImmPACT DAB peroxidase (Vector Laboratories, SK-4100) was used to develop the stain and hematoxylin was used as nuclear counterstain. Stained slides were imaged at 40× magnification. Quantitative analyses of IHC images were performed using ImageJ.

On to `CCn1c(-c2cc(N3CCN(C4CC4)CC3)cnc2[C@H](C)OC)c2c3cc(ccc31)-c1csc(n1)C[C@H](NC(=O)[C@H]1[C@@H]3COC[C@@H]31)C(=O)N1CCC[C@H](N1)C(=O)OCC(C)(C)C2` [RMC-7977], for which, in series [1] (21-28 days), the “models with tumor regressions” value is listed as 7/10. The “response of KRASQ61H mutant HS-766T line in CDX setting” value in series [1] (HS-766T CDX) is “among the most responsive”. Also, the tolerability result in series [1] (all 10 models) was “well tolerated”. Besides, in series [1] (all 10 models, 21-28 days), the anti-tumor activity entry is on record as “significant anti-tumor activity”. The “body weight over time” value in series [1] (treated animals) is listed as “stable body weight”. In addition, the “time to full restoration of Cyclin A2 levels in normal colon” value in series [2] (KPF/FC mice) was ≤ 24 h. The “proliferation (Cyclin A2) in normal colon” value in series [2] (KPF/FC mice, at 12 hours) is on record as “transient decrease”. For the same compound, in series [2] (KPF/FC tumors, four hours after a single dose), the “spike in CC3+ apoptotic cells in tumors” value is on record as ~4 fold. For the same compound, the “apoptosis in normal tissues” value in series [2] (all doses and time points) is “negligible or absent”.

Source of the values: patent US12662707B2, “MYC amplification drives resistance to pan-RAS inhibitors in pancreatic cancer” (The Trustees of Columbia University in the City of New York, priority 2024, dated 2026).
